This is an account of results in patent US11351218B2, “Composition for preventing or treating glioblastoma comprising Platycodon grandiflorum A. De Candolle, Scutellaria baicalensis, Phellodendron amurense Ruprecht or Rubus coreanus” (University-Industry Cooperation Group of Kyung Hee …, priority 2019, dated 2022).

Assay [1] deals with U87MG and U373MG cells. Put plainly: Immunofluorescence of SQSTM1/p62 with GFP-LC3B in GBM cells. In kind it is cell-based, human. The settings on record: PD 10 μM or BafA1 (100 μM), 24 hours. The procedure:
The cells expressing GFP-LC3B (green) were treated with DMSO, PD (10 μM), or BafA1 (100 μM) for 24 hours, followed by staining with an anti-SQSTM1 antibody (red) and DAPI (blue). The merged images (yellow) indicate co-localization between LC3 and p62. The panels on the right are higher-magnification images of the boxed regions.
Cultured cells seeded in plates with microscope coverslips were transfected with a pGFP-LC3B plasmid using Lipofectamine 3000 (Thermo Fisher Scientific) according to the manufacturer's instructions. After the transfection, the cells were fixed with 4% paraformaldehyde (PFA) in phosphate-buffered saline (PBS) at room temperature for 10 minutes. The images were examined under a laser confocal microscope (Zeiss, Oberkochen, Baden-Wurttemberg, Germany).
Cells treated with the materials were permeabilized with 0.01% Triton X-100 in PBS. After blocking the resulting cells in 2% bovine serum albumin (BSA) in PBS, they were incubated at 4° C. with a primary antibody against SQSTM1/p62 (Santa Cruz) overnight. The stained cells were incubated with an Alexa594-conjugated secondary antibody (Invitrogen, Calif., USA). The images were examined under a Zeiss laser confocal microscope.

Assay [2] deals with A549, H358, MCF7, HT29 and HepG2 cells. As to the kind of experiment: WST1 cell viability assay in various cancer cell lines. The following applies: different concentrations, 48 hours, all cell lines tested. In kind it is cell-based. How it is done: FIGS. 9A to 9C show the results that PD decreases cell viability and vacuole formation in various cancer cell lines. FIGS. 9A and 9B show the results in which indicated cells were treated with different concentrations of PG or PD for 48 hours and cell viability was measured by WST1 assay. Data shown represent the means of quintuplicate measurements which were repeated three times. The results are presented as a percentage of control (means±SD).
Cell cytotoxicity was assessed by WST1 assay. U87 and U373 cells were each seeded in a 96-well plate (5×10^3 cells/well) and treated with different concentrations of platycodin D (PD). Then, cells were incubated with a WST1 reagent (Dogen, Seoul, Korea) for 2 hours before reading the plate. Absorbance was measured at 450 nm using an ELISA reader (Versa Max, Molecular Devices, Sunnyvale, Calif., USA).
Previously, PD was reported to inhibit cell viability in various cancer cell lines. To further confirm the effects of PD on the cytotoxicity of cancer cells, WST1 assay was performed following treatment with different concentrations of PD.

The test system is the same in assay [3]. Put plainly: Cell morphology (vacuoles) under optical microscope in various cancer cell lines. It counts as cell-based. The following applies: PG 500 μg/mL or PD 10 μM, 24 hours.
The subject of assay [4] is U87MG and U373MG cells. Put plainly: DQ Red-BSA trafficking assay (lysosomal proteolytic activity) in GBM cells. It counts as cell-based, human. The following applies: PD 10 μM or BafA1 (100 μM), 24 hours. How it is done:
Cells were incubated with DMSO, PD (10 μM), or BafA1 (100 μM) for 24 hours, and then the cells were treated with DQ-BSA ([…]) for 30 minutes. Data shown are representative images of each sample. The fluorescence intensity of DQ-BSA was quantified with ImageJ software. More than 100 cells were counted in each condition and the number of puncta per cells is presented as means±SD from three independent experiments.
Cells were placed on coverslips prior to treatment with the materials and continuously loaded with DQ Red-BSA (Invitrogen) at a working concentration of 10 μg/mL in a culture medium at 37° C. for 30 minutes. The cells were fixed in 4% PFA and then subjected to DAPI staining. The images were examined under a Zeiss laser confocal microscope. The number of DQ Red-BSA spots was quantified using ImageJ software.
To confirm the lysosomal activity in PD-treated GBM cells, the DQ-BSA assay was performed to assess lysosomal protein degradation. In DQ-BSA, which is a red BODIPY dye conjugated to bovine serum albumin (BSA), the BSA is so heavily conjugated that the red fluorescence is self-quenched. Upon cleavage of the DQ-BSA by proteolytic enzymes in lysosomal compartments, this quenching is relieved, generating red fluorescence. Thus, DQ-BSA is a useful tool to visualize a lysosomal proteolytic activity.

For the next assay, the system named is LDLR. Put plainly: Immunoblot of LDLR in U87MG, U373MG cells and normal astrocytes. It counts as cell-based, human. The settings on record: 24 hours. How it is done:
FIGS. 16A to 16D show the results that PD increases the expression of LDLR on cell surfaces in GBM cells. […] GAPDH was used as a loading control. […] GAPDH was used as a loading control.
Cells treated with the concentrations and materials described in FIGS. 1-3B, 7, 8, 10, 13, 16, 18, and 20 were lysed in buffer containing 20 mM Tris-HCl (pH 7.5), 150 mM NaCl, 1 mM EDTA, 1 mM Na2EDTA, 1 mM EGTA, 1% NP-40, 1% sodium deoxycholate, 1 mM Na3VO4, 1 mM MPI, 1 mM PMSF, and PI cocktails for 15 to 20 minutes on ice. Cell lysates were separated by SDS-PAGE and transferred to nitrocellulose membranes. Immunodetection was performed with the following primary antibodies: rabbit anti-LC3B, rabbit anti-cathepsin B, rabbit-anti GAPDH (Cell Signaling Technology, Danvers, Mass.), mouse anti-SQSTM1/p62, and goat anti-cathepsin D (Santa CruzKPL, Gaithersburg, Md., USA) were incubated at room temperature for 1 hour. The protein bands were detected with ECL western Blotting Substrate (Thermo Fisher Scientific, Waltham, Mass., USA).
Brain is the most cholesterol-rich organ of the body, containing about 20% of total body cholesterol. […] As can be confirmed in FIG. 16A, in consistent with these reports, the LDLR protein level was markedly elevated in U87MG and U373MG cells relative to normal human astrocytes. […] Then, the cell surface expression of LDLR was confirmed by flow cytometry.

In the next assay the test system is normal astrocytes. Put plainly: BODIPY FL LDL uptake assay, normal astrocytes. It counts as cell-based, human. The settings on record: PD 10 μM or U18 1 μM, 24 hours. The procedure:
Cells were treated with DMSO, PD (10 μM), or U18 (1 μM) for 24 hours and subsequently loaded with BODIPY™ FL LDL. BODIPY-LDL uptake was visualized by confocal microscopy. Nuclei were stained with DAPI (blue). Quantification shown on the right graph represents a relative fold change from three independent experiments±SD.
Cells seeded on coverslips were treated with the materials and then the culture medium was replaced with BODIPY™ FL LDL (Thermo Fisher Scientific) at a working concentration of 5 μg/mL in a medium. The cells were additionally incubated at 37° C. for 1 hour. The degree of LDL uptake was measured using a Zeiss laser confocal microscope.
Based on the previous study results of the present inventors that PD increases cell surface LDLR expression and accumulate cholesterol within lysosomes, whether PD can increase the uptake of exogenous LDL was examined Cells pretreated with PD or U18666A were incubated with BODIPY FL-labeled LDL particles for 1 hour and the LDL uptake was observed by a confocal microscope. Upon analysis of these cells, it was observed that PD caused about a 6-fold increase in LDL uptake and it was a level similar to that detected in the U18666A-treated cells.

Take `C[C@@H]1O[C@@H](O[C@H]2[C@H](OC(=O)[C@]34CCC(C)(C)C[C@H]3C3=CC[C@@H]5[C@@]6(C)C[C@H](O)[C@H](O[C@@H]7O[C@H](CO)[C@@H](O)[C@H](O)[C@H]7O)C(CO)(CO)[C@@H]6CC[C@@]5(C)[C@]3(C)C[C@H]4O)OC[C@H](O)[C@@H]2O)[C@H](O)[C@H](O)[C@H]1O[C@@H]1OC[C@@H](O)[C@H](O[C@@H]2OC[C@](O)(CO)[C@H]2O)[C@H]1O` [PD, platycodin D]: the “p62 staining and colocalization with GFP-LC3B puncta” value in the assay on U87MG and U373MG cells [1] is listed as “increase”. The cell viability result in assay [2] was “suppressed the-viability in a dose-dependent manner”. Besides, the vacuoles entry in assay [3] is “visible vacuoles were observed”. Further, the “DQ-BSA red fluorescence vs DMSO” value in the assay with U87MG and U373MG cells [4] is “significant reduction”. Besides, the LDLR expression result in the assay with LDLR (PD 5 μM and 10 μM or U18666a 1 μM, U87MG, U373MG and normal astrocytes) is reported as “significantly increased”. Moreover, the “degree of LDLR expression, GBM cells vs normal astrocytes” value in the assay with LDLR (PD 5 μM and 10 μM) was “more prominent in GBM cells than in normal astrocytes”. In addition, the LDL uptake result in the assay on normal astrocytes is “less effective”.
